Test results as given in ChEMBL document CHEMBL5230146, “Crystal Structures of Metallo-β-Lactamase (IMP-1) and Its D120E Mutant in Complexes with Citrate and the Inhibitory Effect of the Benzyl Group in Citrate Monobenzyl Ester” (J Med Chem, 2021).
Active and inactive are the calls of the source. No cut-off for these calls is given here.

Columns and labels:
[1] = target: Metallo-beta-lactamase type 2 (Serratia marcescens) (UniProt P52699); assay: Inhibition of Serratia marcescens IMP-1 expressed in Escherichia coli BL21 (DE3) at 5 mM using cephalothin as substrate preincubated for 5 mins followed by substrate addition relative to control
[2] = target: Metallo-beta-lactamase type 2 (Serratia marcescens, UniProt P52699); assay: Inhibition of Serratia marcescens IMP-1 expressed in Escherichia coli BL21 (DE3) using cephalothin as substrate preincubated for 5 mins followed by substrate addition relative to citrate
[3] = target: Metallo-beta-lactamase type 2 (Serratia marcescens) (UniProt P52699); assay: Inhibition of Serratia marcescens IMP-1 expressed in Escherichia coli BL21 (DE3) at 5 mM using cephalothin as substrate preincubated for 5 mins followed by substrate addition

Metallo-beta-lactamase type 2 (Serratia marcescens), sequence (P52699 19-246 limits assumed): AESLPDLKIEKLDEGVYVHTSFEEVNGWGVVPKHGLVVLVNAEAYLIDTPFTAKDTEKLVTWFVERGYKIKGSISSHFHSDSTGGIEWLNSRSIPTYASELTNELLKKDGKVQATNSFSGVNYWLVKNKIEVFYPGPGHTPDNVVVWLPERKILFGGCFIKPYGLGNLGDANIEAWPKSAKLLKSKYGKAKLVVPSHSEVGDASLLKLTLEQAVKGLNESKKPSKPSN
Metallo-beta-lactamase type 2, sequence (P52699 whole entry): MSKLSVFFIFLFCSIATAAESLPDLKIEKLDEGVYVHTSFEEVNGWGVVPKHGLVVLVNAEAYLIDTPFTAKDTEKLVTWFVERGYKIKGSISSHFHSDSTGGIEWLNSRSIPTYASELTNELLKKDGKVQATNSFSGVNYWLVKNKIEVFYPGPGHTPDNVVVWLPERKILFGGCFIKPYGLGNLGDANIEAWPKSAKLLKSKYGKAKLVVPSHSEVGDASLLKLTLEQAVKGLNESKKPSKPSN

SMILES | inhibition [1] [%] | IC50 [2] [mM] | inhibition [3]
O=C(O)CC(O)(CC(=O)OCc1ccccc1)C(=O)O (stereo not drawn) | 30 | > 5 | 
O=C(O)CC(O)(CC(=O)O)C(=O)O |  |  | inactive
